Reference: US20150231109A1, “COMBINATIONS (CATECHINS AND METHOTREXATE) FOR USE IN THE TREATMENT OF MELANOMAS” (UNIVERSIDAD DE MURCIA, priority 2012, published 2015)
Marks after values point to notes of the source that are not given here.

What was measured:
[1] = tested on: IGR39 cells; assay: Matrigel Boyden chamber invasion assay, IGR39; type: cell-based; details: IGR39, MTX 72 h, 1 μM
Procedure: FIGS. 1A-J. Methotrexate up-regulates the expression of MITF. A, The MITF rheostat, and the two-step strategy for melanoma therapy: Drug A induces MITF, driving cells to be sensitive to Drug B. B, MTX (1 μM) increases MITF mRNA determined using quantitative and conventional RT-PCR from indicated cell lines. […] C, MTX (1 μM) induces MITF protein assayed by western blotting (WB) (*P<0.05). D, Immunofluorescence of control or MTX-treated (3 h) 501 MEL cells using anti-MITF and DAPI. E, Matrigel assay of control and MTX-treated SKMEL-28 cells (48 h, 1 μM) and IGR39 (72 h, 1 μM) cells. […] Scale bar refers to all panels. F, Chromatin immunoprecipitation on TYR and Pmel17 genes of control and MTX-treated (4 h, 1 μM) SK-MEL-28 cells with qRT-PCR after immunoprecipitation with IgG, or MITF and HDAC3 antibodies. Error bars indicate standard deviations of triplicates; experiment reproduced four times with similar results. G, Scanning electron micrographs of control and MTX-treated (1 μM, 24 h) SK-MEL-28 cells. H, Semiquantitative RT PCR of TYR, TYRP1, Pmel17, MART1, and Rab27a mRNA. […]
Invasion assays were performed using a cell invasion assay kit (BD Bioscience). […] The invading cells were stained and quantified measuring the surface occupied by stained cells with a cell counter plug-in of the Image J software.

[2] = tested on: Caco-2; assay: HPLC/MS/MS intracellular levels of MTX in Caco-2; type: cell-based; details: Caco-2, same MTX treatment (24 h, 1 μM)
[3] = tested on: SK-MEL-28 melanoma cells; assay: HPLC/MS analyses of MTX, TMECG-QM and DHF in whole cell extracts; type: cell-based, human; details: SK-MEL-28 whole cell extracts, 24 h, MTX 1 μM and/or TMECG 10 μM
Procedure: By way of example, the present inventors have shown that an active agent, such as MTX, may be used to increase TYR expression, thereby increasing the conversion of a catechin to its quinone methide form. The inventors have undertaken HPLC analyses of MTX, TMECG-QM, and DHF in whole cell extracts of SK-MEL-28 melanoma cells that were subjected to MTX (1 μM) and TMECG (10 μM) individual and combined treatments (see Table 1).

[4] = tested on: SK-MEL-28 cells; assay: Apoptosis assay (cytoplasmic histone-associated DNA fragmentation ELISA), SK-MEL-28; type: cell-based, human; details: SK-MEL-28, MTX alone
Procedure: FIGS. 2A-N. MTX and TMECG combination therapy induces apoptosis via dTTP depletion and DNA-damage. A, Intracellular accumulation of TMECG-QM in SK-MEL-28 treated with TMECG or MTX/TMECG for 24 h. B, Proliferation assays performed of control or MTX/TMECG-treated (10 μM/1 μM) SK-MEL-28 cells. C, Quantification of effects of MTX/TMECG treatment on SK-MEL-28 cells (*P<0.05 with respect to TMECG-treated cells). For time course assay MTX (1 μM) and TMECG (10 μM) were used. D, dNTP quantification in melanoma cells subjected to indicated treatments (*P<0.05). […] K, quantification of γH2AX foci in SK-MEL-28 cells treated with MTX (1 μM) and/or TMECG (10 μM), or X-rays. […] N, Cell cycle profile determined by flow cytometry of SK-MEL-28 cells treated with a sublethal dose of MTX/TMECG. […]
The induction of apoptosis was assessed by performing cytoplasmic histone-associated DNA fragmentation using a kit from Roche Diagnostics (Barcelona, Spain). […] The amount of nucleosomes is photometrically quantified at 405 nm by the peroxidase activity retained in the immunocomplexes. Apoptosis was defined as the specific enrichment of mono- and oligonucleosomes in the cytoplasm and was calculated by dividing the absorbance of treated samples by the absorbance of untreated samples after correcting for the number of cells. […]

[5] = tested on: MCF7; assay: HPLC/MS/MS intracellular levels of MTX in MCF7; type: cell-based; details: MCF7, same MTX treatment (24 h, 1 μM)

intracellular levels of MTX [2]: 0.8 ± 0.3 pmol/106 cells
MTX intracellular concentration [3]: <0.001* pmol/10^6 cells
intracellular levels of MTX [5]: 1.3 ± 0.4 pmol/106 cells
SMILES: CN(Cc1cnc2nc(N)nc(N)c2n1)c1ccc(C(=O)N[C@@H](CCC(=O)O)C(=O)O)cc1 [MTX, methotrexate]
invasiveness [1]: eliminated invasiveness
induction of apoptosis [4]: did not induce apoptosis
